Measurements from the Deep4Chem optical property database.
One block for each compound: values may come before it.

Experiment: photoluminescence quantum yield (fraction); solvent given as SMILES

photoluminescence quantum yield (in ClCCl): 0.425
SMILES: COc1ccc2c(c1)CCC1=C(C#Cc3cc4ccccc4c4ccccc34)O[B-](F)(F)[O+]=C12

photoluminescence quantum yield (in CC1CCCCC1): 0.01
photoluminescence quantum yield (in CC#N): 0.05
photoluminescence quantum yield (in CO): 0.18
photoluminescence quantum yield (in O): 0.22
SMILES: COC(=O)C([NH3+])Cc1ccc2oc(-c3ccncc3)nc2c1 (stereo not drawn)

photoluminescence quantum yield (in ClCCl): 0.082
SMILES: CCCCCc1c(C(=O)c2ccc3c4c(cccc24)-c2cccc4c2C3CC=C4)c2ccc3cccc4c5cccc6ccc1c(c65)c2c34 (stereo not drawn)

photoluminescence quantum yield (in ClCCl): 0.13
SMILES: CCCCCCOc1cc(/C=C/c2cc(OCCCCCC)c(/C=C/c3cc(OCCCCCC)c(C=C(C#N)C#N)cc3OCCCCCC)cc2OCCCCCC)c(OCCCCCC)cc1C=C(C#N)C#N

photoluminescence quantum yield (in C1CCOC1): 0.587
SMILES: CC(C)(C)c1ccc(-c2c(-c3ccc(N(c4ccccc4)c4ccccc4)cc3)cc(-c3ccc(N(c4ccccc4)c4ccccc4)cc3)c(-c3ccc(C(C)(C)C)cc3)c2-c2ccc(C(C)(C)C)cc2)cc1

photoluminescence quantum yield (in c1ccccc1): 0.039
SMILES: CCOC(=O)CSc1nc2c(c(C#N)c1C#N)CCCCCC2

photoluminescence quantum yield (in C1CCCCC1): 0.02
SMILES: c1ccc(-c2cc3cccc[n+]3[b-]3c(-c4cccc5[b-]4[n+]4ccccc4cc5-c4ccccc4)cccc32)cc1

photoluminescence quantum yield (in ClCCl): 0.17
SMILES: COC(=O)CCC1=CC(C#Cc2cccs2)=[N+]2C1=Cc1c(CCC(=O)OC)cc(C#Cc3cccs3)n1[B-]2(F)F

photoluminescence quantum yield (in CCCCCC): 0.42
photoluminescence quantum yield (in CO): 0.5
photoluminescence quantum yield (in ClCCl): 0.5
SMILES: C[Si](C)(C)c1ccc2ccc3c([Si](C)(C)C)ccc4ccc1c2c43

photoluminescence quantum yield (in CC#N): 0.009
SMILES: C[C@@]12SC(Cl)=CC1=c1nc(-c3ccc(Cl)cc3)[nH]c1=C1C=C(Cl)S[C@]12C

photoluminescence quantum yield (in ClCCl): 0.86
SMILES: COc1cccc(OC)c1-c1c2ccc(=[N+]3CCCCC3)cc-2oc2cc(N3CCCCC3)ccc12

photoluminescence quantum yield (in C1CCOC1): 0.82
SMILES: COC(=O)c1cc2c(cc3ccc4cccc5ccc2c3c45)[nH]1

photoluminescence quantum yield (in ClCCl): 0.1
SMILES: Nc1cccc2c1ccc1[n+]2[B-](F)(F)n2c-1cc1c3ccccc3c3ccccc3c12

photoluminescence quantum yield (in ClCCl): 0.34
SMILES: CCCCCCCCCCCCCCCCCCOC(=O)/C=C/C1=CC2=C(c3c(C)cc(C)cc3C)c3cccn3[B-](F)(F)[N+]2=C1

photoluminescence quantum yield (in CO): 0.21
photoluminescence quantum yield (in CS(C)=O): 0.26
SMILES: CCC1=C(C)C2=Cc3c4ccccc4c4n3[B-](c3cc[n+](C)cc3)(Oc3ccccc3-4)[N+]2=C1C=Cc1ccc(OC)cc1 (stereo not drawn)

photoluminescence quantum yield (in CCO): 0.32
SMILES: O=CC1=C(c2ccc(-c3cccs3)s2)CC1

photoluminescence quantum yield (in ClCCl): 0.03
SMILES: OB1c2ccccc2Nc2ccccc21

photoluminescence quantum yield (in ClCCl): 0.18
SMILES: Clc1ccc(N2c3sc4ccccc4c3Sc3c2sc2ccccc32)cc1

photoluminescence quantum yield (in C1CCOC1): 0.004
photoluminescence quantum yield (in CC#N): 0.0016
photoluminescence quantum yield (in CS(C)=O): 0.0021
photoluminescence quantum yield (in ClC(Cl)Cl): 0.023
SMILES: COc1cccc2cc(-c3ccc([N+](=O)[O-])cc3)c(=N)oc12

photoluminescence quantum yield (in CCO): 0.02
SMILES: O=CC1=C(c2ccc(-c3cccs3)s2)CCC1

photoluminescence quantum yield (in ClCCl): 0.73
SMILES: CCCCCCn1c2ccccc2c2cc(-c3ccc(-c4cc(-c5ccccn5)nc(-c5ccccn5)c4)cc3)ccc21

photoluminescence quantum yield (in ClCCl): 0.42
SMILES: Cc1ccc(-c2cnc3ccc4ccccc4n23)cc1

photoluminescence quantum yield (in O): 0.016
SMILES: Cc1cn(CCCn2cc(C)c(=O)[nH]c2=O)c(=O)nc1-n1cncn1

The next lines start with the compound.

SMILES: COc1ccc2[nH]cc(/C=C/C3=[NH+]c4cccc5cccc3c45)c2c1
photoluminescence quantum yield (in CO): 0.0486

SMILES: COc1cc2cc(OC)c(-c3ccc([N+](=O)[O-])cc3)cc2cc1-c1ccc([N+](=O)[O-])cc1
photoluminescence quantum yield (in ClC(Cl)Cl): 0.01
photoluminescence quantum yield (in ClCCl): 0.009

SMILES: [O-][n+]1c(/C=C/c2ccc3ccccc3c2)nc(N2CCOCC2)c2c1CCCC2
photoluminescence quantum yield (in ClCCl): 0.05

SMILES: CC(C)[Si](C#Cc1c2cc3ccccc3cc2c(C#C[Si](C(C)C)(C(C)C)C(C)C)c2nc3c(ccc4cc5ccccc5cc43)nc12)(C(C)C)C(C)C
photoluminescence quantum yield (in CCCCCC): 0.26

SMILES: CCC1=C(C)C2=Cc3cccn3[B-](F)(F)[N+]2=C1C
photoluminescence quantum yield (in C1CCCCC1): 0.7
photoluminescence quantum yield (in CC(C)=O): 0.65
photoluminescence quantum yield (in CCO): 0.69
photoluminescence quantum yield (in CCOC(C)=O): 0.69
photoluminescence quantum yield (in CO): 0.6
photoluminescence quantum yield (in OCC(F)(F)F): 0.49

SMILES: C[Si]1(C)c2ccccc2-c2cc3c(cc21)-c1ccccc1[Si]3(C)C
photoluminescence quantum yield (in ClCCl): 0.45

SMILES: CC1(C)c2ccccc2N(c2c(F)cc(-c3nnc(-c4ccccc4)o3)cc2F)c2ccccc21
photoluminescence quantum yield (in Cc1ccccc1): 0.24
photoluminescence quantum yield (in O=P(c1ccccc1)(c1ccccc1)c1ccccc1Oc1ccccc1P(=O)(c1ccccc1)c1ccccc1): 0.72

SMILES: COc1ccc(-c2cc3c(o2)=CC2=C(C(F)(F)F)c4cc5oc(-c6ccc(OC)cc6)cc5n4[B-](F)(F)[N+]=32)cc1
photoluminescence quantum yield (in C1CCOC1): 0.49
photoluminescence quantum yield (in CC#N): 0.45
photoluminescence quantum yield (in CCO): 0.37
photoluminescence quantum yield (in CO): 0.32
photoluminescence quantum yield (in Cc1ccccc1): 0.58
photoluminescence quantum yield (in ClC(Cl)Cl): 0.56

SMILES: CC(C)(C)c1ccc2c(c1)sc1[n+]2[B-](F)(F)n2c(c3cccc4c(Br)ccc2c43)=N1
photoluminescence quantum yield (in C1CCOC1): 0.63
photoluminescence quantum yield (in CC#N): 0.64
photoluminescence quantum yield (in CCCCCC): 0.68
photoluminescence quantum yield (in Cc1ccccc1): 0.64
photoluminescence quantum yield (in ClCCl): 0.72

SMILES: F[B-]1(F)n2c(-c3cccs3)cc(-c3ccccc3)c2N=C2C(c3ccccc3)=CC(c3cccs3)=[N+]21
photoluminescence quantum yield (in CC#N): 0.46
photoluminescence quantum yield (in ClCCl): 0.44

SMILES: CCOC(=O)C(C(=O)OCC)C1=[N+]2C(=C(c3ccc(C)cc3)c3ccc(C(C(=O)OCC)C(=O)OCC)n3[B-]2(F)F)C=C1
photoluminescence quantum yield (in C1CCCCC1): 0.62
photoluminescence quantum yield (in C1CCOC1): 0.46
photoluminescence quantum yield (in CCOC(C)=O): 0.38
photoluminescence quantum yield (in CO): 0.35
photoluminescence quantum yield (in Cc1ccccc1): 0.89
photoluminescence quantum yield (in ClC(Cl)Cl): 0.59

SMILES: CCCCN(CCCC)c1ccc(/C=C/c2ccc(-c3ccc(/C=C/c4ccc(N(CCCC)CCCC)cc4)cc3)cc2)cc1
photoluminescence quantum yield (in CS(C)=O): 0.89
photoluminescence quantum yield (in Cc1ccccc1): 0.81

SMILES: CN(C)c1ccc(C2=Nc3sc4cc(C(F)(F)F)ccc4[n+]3[B-](F)(F)O2)cc1
photoluminescence quantum yield (in C1CCOC1): 0.61
photoluminescence quantum yield (in CC#N): 0.05
photoluminescence quantum yield (in CC(C)=O): 0.13
photoluminescence quantum yield (in Cc1ccccc1): 0.93
photoluminescence quantum yield (in ClCCl): 1

SMILES: COc1ccc2c3ccc(OC)cc3n(-c3ccc(-c4nnc(C)o4)cc3)c2c1
photoluminescence quantum yield (in Cc1ccccc1): 0.06

SMILES: Cc1cc(C)c(B(c2cc(-c3ccc(C(C)(C)C)cc3)sc2-c2sc(-c3ccc(C(C)(C)C)cc3)cc2P(=O)(c2ccccc2)c2ccccc2)c2c(C)cc(C)cc2C)c(C)c1
photoluminescence quantum yield (in CO): 0.54

SMILES: CCN1C(=CC2=C([O-])C(=Cc3sc4ccccc4[n+]3CC)C2=O)Sc2ccccc21
photoluminescence quantum yield (in CC(C)O): 0.13

SMILES: CCCCCCCCCCCCc1ccc(-c2cc(C)[o+]c(C)c2)cc1
photoluminescence quantum yield (in CC#N): 0.36
photoluminescence quantum yield (in ClCCl): 0.37

SMILES: O=C(O)C1=C/C(=C/C=[N+]2/c3cc(O)c(C[C@@H]4O[C@H](CO)[C@@H](O)C(O)[C@H]4O)cc3C[C@H]2C(=O)O)C[C@H](C(=O)O)N1 (stereo partly drawn)
photoluminescence quantum yield (in CO): 0.0015
photoluminescence quantum yield (in O): 0.0007
photoluminescence quantum yield (in OCCO): 0.0041
photoluminescence quantum yield (in [2H]O[2H]): 0.001

SMILES: Cc1ccc(NC(=O)c2ccc(N(C)C)cc2)cc1
photoluminescence quantum yield (in C1CCCCC1): 0.0015
photoluminescence quantum yield (in C1CCOC1): 0.0028
photoluminescence quantum yield (in CC#N): 0.0027
photoluminescence quantum yield (in CCOCC): 0.0034

SMILES: F[B-]1(F)n2c(c3cccc4cccc2c43)=Nc2sc3ccccc3[n+]21
photoluminescence quantum yield (in C1CCOC1): 0.89
photoluminescence quantum yield (in CC#N): 0.97
photoluminescence quantum yield (in CCCCCC): 0.87
photoluminescence quantum yield (in Cc1ccccc1): 0.76
photoluminescence quantum yield (in ClCCl): 0.85

SMILES: CC(C)(C)c1ccc(C(C)(C)C)c(N2C(=O)c3cccc4c(-c5ccc(-c6ccccc6)s5)ccc(c34)C2=O)c1
photoluminescence quantum yield (in CO): 0.34
photoluminescence quantum yield (in CS(C)=O): 0.43
photoluminescence quantum yield (in Cc1ccccc1): 0.06

SMILES: C1=C(c2ccccc2)B(c2ccccc2)Nc2c1ccc1ccccc21
photoluminescence quantum yield (in C1CCCCC1): 0.51

SMILES: CCCCC(CC)CN1C(=O)c2cccc3c(C#Cc4ccc(N(c5ccccc5)c5ccc(C#Cc6ccc7c8c(cccc68)C(=O)N(CC(CC)CCCC)C7=O)cc5)cc4)ccc(c23)C1=O (stereo not drawn)
photoluminescence quantum yield (in C1CCCCC1): 0.93
photoluminescence quantum yield (in C1CCOC1): 0.85
photoluminescence quantum yield (in CC#N): 0.012
photoluminescence quantum yield (in Cc1ccccc1): 0.94
photoluminescence quantum yield (in ClC(Cl)Cl): 0.44

SMILES: Cc1c(COC(=O)c2ccccc2Br)n2c(OCC(=O)c3ccccc3Br)c(C)c(=O)n2c1=O
photoluminescence quantum yield (in CCO): 0.841

SMILES: CC(=O)[B-]1(C(C)=O)OC(c2ccccc2)=CC(c2ccccc2)=[O+]1
photoluminescence quantum yield (in CC#N): 0.8
photoluminescence quantum yield (in ClC(Cl)(Cl)Cl): 0.9

SMILES: F[B-]1(F)n2c(c3ccccc3c2-c2ccccc2)N=C2c3ccccc3C(c3ccccc3)=[N+]21
photoluminescence quantum yield (in ClCCl): 0.14

SMILES: N#C/C(=N/Nc1ccc(C#N)cc1)c1nc(-c2ccccc2)cs1
photoluminescence quantum yield (in CC#N): 0
photoluminescence quantum yield (in CCO): 0.0001
photoluminescence quantum yield (in CN(C)C=O): 0
photoluminescence quantum yield (in Cc1ccccc1): 0.0001
photoluminescence quantum yield (in ClCCl): 0.0001

SMILES: CCN(CC)c1ccc(-c2nc(Oc3ccc(-c4nc5ccccc5s4)cc3)nc(Oc3ccc(-c4nc5ccccc5s4)cc3)n2)cc1
photoluminescence quantum yield (in CN(C)C=O): 0.155

SMILES: Cn1cc(/C=C/C(=O)c2ccccc2)c2ccccc21
photoluminescence quantum yield (in C1CCOC1): 0.1
photoluminescence quantum yield (in C1COCCO1): 0.114
photoluminescence quantum yield (in CC#N): 0.343
photoluminescence quantum yield (in CC(C)=O): 0.329
photoluminescence quantum yield (in CC(C)O): 0.231
photoluminescence quantum yield (in CCC(=O)CC): 0.209
photoluminescence quantum yield (in CCCC#N): 0.217
photoluminescence quantum yield (in CCCC(C)=O): 0.22
photoluminescence quantum yield (in CCCCCCCCO): 0.345
photoluminescence quantum yield (in CCCCCCO): 0.428
photoluminescence quantum yield (in CCCCO): 0.333
photoluminescence quantum yield (in CCCO): 0.5
photoluminescence quantum yield (in CCO): 0.173
photoluminescence quantum yield (in CN(C)C=O): 0.245
photoluminescence quantum yield (in CO): 0.162
photoluminescence quantum yield (in CS(C)=O): 0.62
photoluminescence quantum yield (in ClC(Cl)Cl): 0.14
photoluminescence quantum yield (in ClCCl): 0.394
photoluminescence quantum yield (in NC=O): 0.277
photoluminescence quantum yield (in O): 0.12
photoluminescence quantum yield (in OC1CCCCC1): 0.778

SMILES: O=P1(c2ccccc2)c2ccc(N3c4ccccc4Sc4ccccc43)cc2-c2cc(N3c4ccccc4Sc4ccccc43)ccc21
photoluminescence quantum yield (in Cc1ccccc1): 0.59
photoluminescence quantum yield (in c1ccc2c(c1)c1ccccc1n2-c1ccc(-c2ccc(-n3c4ccccc4c4ccccc43)cc2)cc1): 0.53

SMILES: Cc1cc(C)cc(C)c1
photoluminescence quantum yield (in C1CCCCC1): 0.27
